Results: US20170334899A1, “AMINO-SUBSTITUTED ISOTHIAZOLES” (Bayer Pharma Aktiengesellschaft, priority 2014, published 2017)

Biological target: T1, catalytic domain of human Bub1 (amino acids 704-1085) (Homo sapiens, UniProt O43683)
T1 construct: catalytic domain of human Bub1 (amino acids 704-1085); His6 (N); made in house; host or cells: insect cells (Hi5)
Assay: Bub1 kinase assay (TR-FRET)
Assay type: biochemical
Settings: 10 μM ATP, avg, read-out: Bub1 avg (IC50 [mol/l])
How it was run: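 Readout is the 665/620 nm TR-FRET ratio from anti-phosphoserine antibody, Eu-labelled anti-mouse IgG and streptavidin-XL665, scaled between no-enzyme and uninhibited controls. Reaction: 1 μM biotinylated peptide, 10 μM ATP, 60 min, 22 °C, after 15 min compound preincubation with His6-Bub1 (704-1085, insect-expressed, ~200 ng/ml).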

T1 sequence (O43683 704-1085): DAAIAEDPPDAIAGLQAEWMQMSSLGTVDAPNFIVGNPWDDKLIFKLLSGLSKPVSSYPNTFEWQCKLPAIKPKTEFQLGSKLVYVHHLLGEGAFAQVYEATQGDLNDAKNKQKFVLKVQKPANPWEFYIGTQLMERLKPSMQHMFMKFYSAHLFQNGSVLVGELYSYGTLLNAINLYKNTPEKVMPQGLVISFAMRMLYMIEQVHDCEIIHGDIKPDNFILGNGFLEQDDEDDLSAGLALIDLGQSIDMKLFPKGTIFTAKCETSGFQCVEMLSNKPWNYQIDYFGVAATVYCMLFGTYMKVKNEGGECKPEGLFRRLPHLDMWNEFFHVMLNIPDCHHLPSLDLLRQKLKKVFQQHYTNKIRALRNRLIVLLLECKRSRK

| IC50 | Structure (SMILES) |
| --- | --- |
| > 20 µM | CCN1CC[C@@H](Oc2ccc(NC(=O)c3c(C)nsc3Nc3cnc(C(F)(F)F)cn3)cn2)[C@H](F)C1 [Example 369, N-(6-{[(3R,4R)-1-ethyl-3-fluoropiperidin-4-yl]oxy}pyridin-3-yl)-3-methyl-5-{[5-(trifluoromethyl)pyrazin-2-yl]amino}-1,2-thiazole-4-carboxamide] |
| 14 µM | Cc1nsc(Nc2cnc(C(F)(F)F)cn2)c1C(=O)Nc1ccc(O[C@H]2CCN(CC(F)F)C[C@@H]2F)nc1 [Example 362] |
| ≥ 20 µM | Cc1nsc(Nc2cnc(C(F)(F)F)cn2)c1C(=O)Nc1ccc(OCC2CCCN(CCC(F)(F)F)C2)nc1 (stereo not drawn) [Example 328, 3-methyl-5-{[5-(trifluoromethyl)pyrazin-2-yl]amino}-N-(6-{[1-(3,3,3-trifluoropropyl)piperidin-3-yl]methoxy}pyridin-3-yl)-1,2-thiazole-4-carboxamide] |
| ≥ 20 µM | Cc1nsc(Nc2cnc(C(F)(F)F)cn2)c1C(=O)Nc1ccc(O[C@H]2CCN(CCC(F)(F)F)C2)nc1 [Example 384, 3-methyl-5-{[5-(trifluoromethyl)pyrazin-2-yl]amino}-N-(6-{[(3S)-1-(3,3,3-trifluoropropyl)pyrrolidin-3-yl]oxy}pyridin-3-yl)-1,2-thiazole-4-carboxamide] |
| ≥ 20 µM | Cc1nsc(Nc2cnc(C(F)(F)F)cn2)c1C(=O)Nc1ccc(O[C@@H]2CCN(CC(F)F)C2)nc1 [Example 379, N-(6-{[(3R)-1-(2,2-difluoroethyl)pyrrolidin-3-yl]oxy}pyridin-3-yl)-3-methyl-5-{[5-(trifluoromethyl)pyrazin-2-yl]amino}-1,2-thiazole-4-carboxamide] |
| > 20 µM | Cc1nsc(Nc2cnc(C(F)(F)F)cn2)c1C(=O)Nc1ccc(O[C@@H]2CCN(CC(F)(F)F)C[C@H]2F)nc1 [Example 367, N-(6-{[(3R,4R)-3-fluoro-1-(2,2,2-trifluoroethyl)piperidin-4-yl]oxy}pyridin-3-yl)-3-methyl-5-{[5-(trifluoromethyl)pyrazin-2-yl]amino}-1,2-thiazole-4-carboxamide] |
| > 20 µM | CCN1CCC(COc2ccc(NC(=O)c3c(C)nsc3Nc3cnc(C(F)(F)F)cn3)cn2)C(F)(F)C1 (stereo not drawn) [Example 393, N-{6-[(1-ethyl-3,3-difluoropiperidin-4-yl)methoxy]pyridin-3-yl}-3-methyl-5-{[5-(trifluoromethyl)pyrazin-2-yl]amino}-1,2-thiazole-4-carboxamide] |
| ≥ 20 µM | Cc1nsc(Nc2cnc(C(F)(F)F)cn2)c1C(=O)Nc1ccc(OC2CCCN(CC(F)F)C2)nc1 (stereo not drawn) [Example 330, N-(6-{[1-(2,2-difluoroethyl)piperidin-3-yl]oxy}pyridin-3-yl)-3-methyl-5-{[5-(trifluoromethyl)pyrazin-2-yl]amino}-1,2-thiazole-4-carboxamide] |
| > 20 µM | Cc1nsc(Nc2cnc(C(F)(F)F)cn2)c1C(=O)Nc1ccc(OC[C@@H]2CCCN(CC(F)(F)F)C2)nc1 [Example 376, 3-methyl-N-(6-{[(3R)-1-(2,2,2-trifluoroethyl)piperidin-3-yl]methoxy}pyridin-3-yl)-5-{[5-(trifluoromethyl)pyrazin-2-yl]amino}-1,2-thiazole-4-carboxamide] |
| > 20 µM | Cc1nsc(Nc2cnc(C(F)(F)F)cn2)c1C(=O)Nc1ccc(OCC2CCN(CC(F)(F)F)CC2(F)F)nc1 (stereo not drawn) [Example 392, N-(6-{[3,3-difluoro-1-(2,2,2-trifluoroethyl)piperidin-4-yl]methoxy}pyridin-3-yl)-3-methyl-5-{[5-(trifluoromethyl)pyrazin-2-yl]amino}-1,2-thiazole-4-carboxamide] |
| > 20 µM | Cc1nsc(Nc2cnc(C(F)(F)F)cn2)c1C(=O)Nc1ccc(O[C@@H]2CCCN(CC(F)(F)F)C2)nc1 [Example 386, 3-methyl-N-(6-{[(3R)-1-(2,2,2-trifluoroethyl)piperidin-3-yl]oxy}pyridin-3-yl)-5-{[5-(trifluoromethyl)pyrazin-2-yl]amino}-1,2-thiazole-4-carboxamide] |
| ≥ 20 µM | Cc1nsc(Nc2cnc(C(F)(F)F)cn2)c1C(=O)Nc1ccc(OCC2CCN(CC(F)F)CC2)nc1 [Example 345, N-(6-{[1-(2,2-difluoroethyl)piperidin-4-yl]methoxy}pyridin-3-yl)-3-methyl-5-{[5-(trifluoromethyl)pyrazin-2-yl]amino}-1,2-thiazole-4-carboxamide] |
| > 20 µM | Cc1nsc(Nc2cnc(C(F)(F)F)cn2)c1C(=O)Nc1ccc(OC[C@@H]2CCCN(CCC(F)(F)F)C2)nc1 [Example 377, 3-methyl-5-{[5-(trifluoromethyl)pyrazin-2-yl]amino}-N-(6-{[(3R)-1-(3,3,3-trifluoropropyl)piperidin-3-yl]methoxy}pyridin-3-yl)-1,2-thiazole-4-carboxamide] |

Further lines, the compound ahead of its results:

| Structure (SMILES) | IC50 |
| --- | --- |
| Cc1nsc(Nc2cnc3ccccc3n2)c1C(=O)Nc1ccc(OC2CCCN(CC(F)F)C2)nc1 (stereo not drawn) [Example 33, N-(6-{[1-(2,2-Difluoroethyl)piperidin-3-yl]oxy}pyridin-3-yl)-3-methyl-5-(quinoxalin-2-ylamino)-1,2-thiazole-4-carboxamide] | ≥ 20 µM |
| Cc1nsc(Nc2cnc(C(F)(F)F)cn2)c1C(=O)Nc1ccc(N2CCN(CC(F)(F)F)CC2)nc1 [Example 360, 3-methyl-N-{6-[4-(2,2,2-trifluoroethyl)piperazin-1-yl]pyridin-3-yl}-5-{[5-(trifluoromethyl)pyrazin-2-yl]amino}-1,2-thiazole-4-carboxamide] | > 20 µM |
| Cc1nsc(Nc2cnc(C(F)(F)F)cn2)c1C(=O)Nc1ccc(C2CCN(CC(F)(F)F)CC2)nc1 [Example 358, 3-methyl-N-{6-[1-(2,2,2-trifluoroethyl)piperidin-4-yl]pyridin-3-yl}-5-{[5-(trifluoromethyl)pyrazin-2-yl]amino}-1,2-thiazole-4-carboxamide] | > 20 µM |
| Cc1nsc(Nc2cnc(C(F)(F)F)cn2)c1C(=O)Nc1ccc(N2CCN(CC(F)F)CC2)nc1 [Example 359, N-{6-[4-(2,2-difluoroethyl)piperazin-1-yl]pyridin-3-yl}-3-methyl-5-{[5-(trifluoromethyl)pyrazin-2-yl]amino}-1,2-thiazole-4-carboxamide] | > 20 µM |
| Cc1nsc(Nc2cnc(C(F)(F)F)cn2)c1C(=O)Nc1ccc(OC2CCCN(CCC(F)(F)F)C2)nc1 (stereo not drawn) [Example 332, 3-methyl-5-{[5-(trifluoromethyl)pyrazin-2-yl]amino}-N-(6-{[1-(3,3,3-trifluoropropyl)piperidin-3-yl]oxy}pyridin-3-yl)-1,2-thiazole-4-carboxamide] | ≥ 20 µM |
| Cc1nsc(Nc2cnc(C(F)(F)F)cn2)c1C(=O)Nc1ccc(F)c(OC[C@H]2CCN(CC(F)F)C2)c1 [Example 397, N-(3-{[(3S)-1-(2,2-difluoroethyl)pyrrolidin-3-yl]methoxy}-4-fluorophenyl)-3-methyl-5-{[5-(trifluoromethyl)pyrazin-2-yl]amino}-1,2-thiazole-4-carboxamide] | > 20 µM |
| Cc1nsc(Nc2cnc(C(F)(F)F)cn2)c1C(=O)Nc1ccc(OCCCN(C)CCF)nc1 [Example 352, N-(6-{3-[(2-fluoroethyl)(methyl)amino]propoxy}pyridin-3-yl)-3-methyl-5-{[5-(trifluoromethyl)pyrazin-2-yl]amino}-1,2-thiazole-4-carboxamide] | 19 µM |
| Cc1nsc(Nc2cnc(C(F)(F)F)cn2)c1C(=O)Nc1ccc(F)c(OCC2CCCN(CCC(F)(F)F)C2)c1 (stereo not drawn) [Example 338, N-(4-fluoro-3-{[1-(3,3,3-trifluoropropyl)piperidin-3-yl]methoxy}phenyl)-3-methyl-5-{[5-(trifluoromethyl)pyrazin-2-yl]amino}-1,2-thiazole-4-carboxamide] | ≥ 20 µM |
| Cc1nsc(Nc2cnc(C(F)(F)F)cn2)c1C(=O)Nc1ccc(OC2CCCN(C(CF)CF)C2)nc1 (stereo not drawn) [Example 333, N-(6-{[1-(1,3-difluoropropan-2-yl)piperidin-3-yl]oxy}pyridin-3-yl)-3-methyl-5-{[5-(trifluoromethyl)pyrazin-2-yl]amino}-1,2-thiazole-4-carboxamide] | ≥ 20 µM |
| Cc1nsc(Nc2cnc(C(F)(F)F)cn2)c1C(=O)Nc1ccc(CCC2CCN(CC(F)F)CC2)nc1 [Example 356, N-(6-{2-[1-(2,2-difluoroethyl)piperidin-4-yl]ethyl}pyridin-3-yl)-3-methyl-5-{[5-(trifluoromethyl)pyrazin-2-yl]amino}-1,2-thiazole-4-carboxamide] | > 20 µM |
| Cc1nsc(Nc2cnc(C(F)(F)F)cn2)c1C(=O)Nc1ccc(OC2CCN(C(CF)CF)CC2)nc1 [Example 324, N-(6-{[1-(1,3-difluoropropan-2-yl)piperidin-4-yl]oxy}pyridin-3-yl)-3-methyl-5-{[5-(trifluoromethyl)pyrazin-2-yl]amino}-1,2-thiazole-4-carboxamide] | 19 µM |
| Cc1nsc(Nc2cnc(C(F)(F)F)cn2)c1C(=O)Nc1ccc(OCCN(C)CCC(F)(F)F)nc1 [Example 351, 3-methyl-N-(6-{2-[methyl(3,3,3-trifluoropropyl)amino]ethoxy}pyridin-3-yl)-5-{[5-(trifluoromethyl)pyrazin-2-yl]amino}-1,2-thiazole-4-carboxamide] | ≥ 20 µM |
| Cc1nsc(Nc2cnc(C(F)(F)F)cn2)c1C(=O)Nc1ccc(F)c(OCC2CCCN(CCF)C2)c1 (stereo not drawn) [Example 336, N-(4-fluoro-3-{[1-(2-fluoroethyl)piperidin-3-yl]methoxy}phenyl)-3-methyl-5-{[5-(trifluoromethyl)pyrazin-2-yl]amino}-1,2-thiazole-4-carboxamide] | ≥ 20 µM |
| Cc1nsc(Nc2cnc(C(F)(F)F)cn2)c1C(=O)Nc1ccc(OCCNCCC(F)(F)F)nc1 [Example 323, 3-methyl-5-{[5-(trifluoromethyl)pyrazin-2-yl]amino}-N-(6-{2-[(3,3,3-trifluoropropyl)amino]ethoxy}pyridin-3-yl)-1,2-thiazole-4-carboxamide] | 18 µM |
